{"source": "patent US20060078615A1", "about": "“Bilayer tablet of telmisartan and simvastatin” (Boehringer Ingelheim International GmbH, priority 2004, published 2006)", "origin": "cited, not measured here", "details": "physiological pH range of the gastrointestinal tract, pH 1 to 7; free acid form"}
{"smiles": "CCCc1nc2c(C)cc(-c3nc4ccccc4n3C)cc2n1Cc1ccc(-c2ccccc2C(=O)O)cc1", "note": "[Telmisartan, 4′-[2-n-propyl-4-methyl-6-(1-methylbenzimidazol-2-yl)benzimidazol-1-ylmethyl]biphenyl-2-carboxylic acid]", "values": [{"measurement": "solubility in aqueous systems", "result": "very poor solubility"}]}
